Test system: collagen gene (COL1A1 gene)
Assay: Promotion of collagen gene (COL1A1) mRNA expression in HaCaT cells, real-time PCR (QPCR)
Assay type: cell-based, human
Settings: for increase of the expression level of the collagen gene (COL1A1 mRNA) compared to the control: 24 hours culture
Description: The OLANDU obtained in Example 2 was used to examine the effect of promoting the expression of collagen gene (COL1A1 gene) in a HaCaT cell that is a human epidermis-derived keratinocyte cell line.
First, the HaCaT cells were cultured in a DMEM medium (containing 10% FBS, 100 U/mL penicillin and […] streptomycin) in the presence of 5% CO2 at 37° C. and saturated humidity. Next, the HaCaT cells adjusted to a cell concentration of 5×10^5 cells/mL were seeded in each well of a 6-well cell culture plate and cultured in a CO2 incubator (5% CO2, 37° C.) for 24 hours. Thereafter, the OLANDU isolated in Example 2 was added to each well to provide a final concentration different from each other. Specifically, the final concentrations of OLANDU in the HaCaT cell culture medium were 1 μM, 5 μM, 10 μM, 50 μM and 100 μM, respectively. A well to which the OLANDU had not been added was used as a control (0 μM). After addition, they were subjected to culture for 24 hours.
After completion of the culture, the HaCaT cells were collected from each well, and total RNA was extracted with an RNA extraction reagent (RNAzol®, a product available from Molecular Research Center, Inc.). The concentration of total RNA obtained by extraction was confirmed with an ultratrace spectrophotometer (NanoDrop; a product available from Thermo Fisher Scientific). To this total RNA were added an oligo dT primer, a dNTP Mix, a 5×1st strand buffer, an RNase inhibitor, DTT and an M-MLV reverse transcriptase to synthesize cDNA from the total RNA. This cDNA was subjected to real-time PCR (QPCR) to measure the expression level of the collagen gene.
QPCR was performed with a commercially available QPCR reagent kit and QPCR measurement device (LightCycler® 480; a product available from Roche Diagnostics K. K.), and the detection was performed with SYBR® Green that is a double-stranded DNA-binding fluorescent dye. The COL1A1 gene encoding the α1 chain of type I collagen was selected as a target gene, and the primers of SEQ ID NOs: 1 and 2 shown in Table 1 below were used as QPCR primers. […]

## COc1ccc(/C=C/C(=O)OC[C@H]2O[C@H](OC(=O)c3cc(O)c(O)c(O)c3)[C@H](O)[C@@H](O)[C@@H]2O)cc1O [OLANDU]
OLANDU 1 μM, control = 100
  increase of the expression level of the collagen gene (COL1A1 mRNA) compared to the control: approximately two-fold
OLANDU 10 μM, control = 100, highest expression-promoting action
  increase of the expression level of the collagen gene (COL1A1 mRNA) compared to the control: more than three-fold
OLANDU 1, 5, 10, 50 and 100 μM, 24 hours culture (FIG. 11)
  expression level of the collagen gene (COL1A1 mRNA) compared to the control without OLANDU: greatly increased the expression level of the collagen gene

Source: patent US20240216407A1, “NOVEL POLYPHENOL COMPOUND” (NABOCUL COSMETICS CO., LTD., priority 2021, published 2024)
